Laboratory results as given in article PMC9268591, “Anti-Inflammatory, Analgesic and Antioxidant Potential of New (2S,3S)-2-(4-isopropylbenzyl)-2-methyl-4-nitro-3-phenylbutanals and Their Corresponding Carboxylic Acids through In Vitro, In Silico and In Vivo Studies” (Molecules, 2022).

Assays:
[1] = DPPH free radical scavenging assay
Experimental: The protocol of Brand-Williams et al. was used for the DPPH assay with some modifications. DPPH (4 mg) was dissolved in methanol (100 mL) to obtain a mixture of […] 1,1-diphenyl,2-picrylhydrazyl (DPPH). The stock solution of the various synthesized compounds was prepared in methanol with 1 mg/mL concentration. This stock solution was used to prepare different concentrations of test samples ranging within 1000–62.5 μg/mL. The 0.1 mL of each concentration (1000–62.5 μg/mL) was combined with the DPPH (3 mL) solution in methanol. The solution was kept at 23 °C for 15 min incubation, followed by the absorbance measurement deliberated at 517 nm. Gallic acid was used as a standard drug in this assay. The percentage DPPH radical scavenging potential was measured via the formula [44]: % radical scavenging potential=CAbs.−SAbs./CAbs.×100 where CAbs. is the absorbance of the control, and SAbs is the absorbance of test samples/standard.

[2] = ABTS free radical scavenging assay
Experimental: The total antioxidant activity of test compound (HBH) was estimated using the 2, 2-azinobis [3-ethylbenzthiazoline]-6-sulfonic acid (ABTS). The 100 mL of ABTS solution (7 mM) was added to 100 mL of potassium persulfate ([…], 2.45 mM) solution, mixed, and kept in the dark for 12 h to generate free radicals. […]. Gallic acid at 2 mg/2 mL of water was used as a standard drug. Likewise, for the test sample, different concentrations (1000–62.5 μg/mL) of the […] were made for absorbance measurements at the same wavelength. The 300 μL of each test solution was added to 3 mL of ABTS solution to measure the absorbance at 745 nm through a UV-visible spectrophotometer. A similar volume of each standard solution was taken to determine the absorbance at the same wavelength. The ABTS percent scavenging potential was calculated via the above formula [45].

Row | SMILES | melting point | IC50 [1] | IC50 [2]
1 | CC(C)c1ccc(C[C@](C)(C(=O)O)[C@@H](C[N+](=O)[O-])c2ccc(Cl)cc2)cc1 [FM8] | 259 to 261 °C |  | 
2 | Cc1ccc([C@H](C[N+](=O)[O-])[C@](C)(Cc2ccc(C(C)C)cc2)C(=O)O)cc1 [FM9] | 233 to 235 °C |  | 
3 | COc1ccccc1[C@H](C[N+](=O)[O-])[C@](C)(Cc1ccc(C(C)C)cc1)C(=O)O [FM11] | 211 to 213 °C |  | 
4 | O=C(O)c1cc(O)c(O)c(O)c1 [Gallic acid, reference compound] |  | 9.02 µM | 3.23 µM
